From PubChem BioAssay (NCI)
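Protocol summary: plate cells (96-well), add compound at 5 concentrations, incubate 48 h, interpolate endpoints linearly. TGI: total growth inhibition.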

Tests used:
Test in all cases: NCI-60 cell line screen, 48 h
K-562 leukemia = test system: K-562 leukemia
KM12 colon = test system: KM12 colon
ACHN renal = test system: ACHN renal
M14 melanoma = test system: M14 melanoma
TK-10 renal = test system: TK-10 renal
SR leukemia = test system: SR leukemia
SN12C renal = test system: SN12C renal
UO-31 renal = test system: UO-31 renal
UACC-62 melanoma = test system: UACC-62 melanoma
SF-295 CNS = test system: SF-295 CNS
OVCAR-5 ovarian = test system: OVCAR-5 ovarian
MOLT-4 leukemia = test system: MOLT-4 leukemia
SK-MEL-2 melanoma = test system: SK-MEL-2 melanoma
SW-620 colon = test system: SW-620 colon
LXFL 529 NSCLC = test system: LXFL 529 NSCLC
HCT-116 colon = test system: HCT-116 colon
NCI-H460 lung = test system: NCI-H460 lung
IGROV1 ovarian = test system: IGROV1 ovarian
M19-MEL melanoma = test system: M19-MEL melanoma
SK-MEL-28 melanoma = test system: SK-MEL-28 melanoma

SMILES | TGI (K-562 leukemia) [µM] | TGI (KM12 colon) [µM] | TGI (ACHN renal) [µM] | TGI (M14 melanoma) [µM] | TGI (TK-10 renal) [µM] | TGI (SR leukemia) [µM] | TGI (SN12C renal) [µM] | TGI (UO-31 renal) [µM] | TGI (UACC-62 melanoma) [µM] | TGI (SF-295 CNS) [µM] | TGI (OVCAR-5 ovarian) [µM] | TGI (MOLT-4 leukemia) [µM] | TGI (SK-MEL-2 melanoma) [µM] | TGI (SW-620 colon) [µM] | TGI (LXFL 529 NSCLC) [µM] | TGI (HCT-116 colon) [µM] | TGI (NCI-H460 lung) [µM] | TGI (IGROV1 ovarian) [µM] | TGI (M19-MEL melanoma) [µM] | TGI (SK-MEL-28 melanoma) [µM]
Nc1ccc(Oc2ccc(C3(c4ccc(Oc5ccc(N)c(O)c5)cc4)C4CC5CC(C4)CC3C5)cc2)cc1O | 5.56 | 4.59 | 3.18 | 3.18 | 4.54 | 3.11 | 3.62 | 3.82 | 7.68 | 14.9 | 5.75 | 4.08 | 3.88 | – | – | – | – | – | – | –
COC(=O)C(Cc1ccc2c(c1)OCO2)(NC(=O)c1ccccc1)P(=O)(OC)OC (stereo not given) | > 100 | > 100 | > 100 | > 100 | > 100 | > 100 | > 100 | > 100 | > 100 | > 100 | > 100 | > 100 | > 100 | > 100 | > 100 | > 100 | > 100 | > 100 | > 100 | > 100
CC(C)OP(=O)(OC(C)C)C(=Nc1ccc(N=C(NNc2ccc([N+](=O)[O-])cc2)P(=O)(OC(C)C)OC(C)C)cc1)NNc1ccc([N+](=O)[O-])cc1 | > 100 | > 100 | > 100 | > 100 | > 100 | > 100 | > 100 | > 100 | 6.7 | – | > 100 | > 100 | > 100 | – | > 100 | > 100 | – | > 100 | > 100 | > 100
CCOC(=O)/C(C#N)=c1/s/c(=C(\O)N/N=C/c2ccc(OC)cc2)c(=N)n1-c1ccccc1 | > 100 | > 100 | > 100 | – | > 100 | > 100 | – | > 100 | > 100 | > 100 | > 100 | > 100 | – | > 100 | > 100 | > 100 | > 100 | > 100 | > 100 | > 100
O=c1cc(O)c1=O | > 100 | > 100 | > 100 | > 100 | > 100 | > 100 | > 100 | > 100 | > 100 | > 100 | > 100 | > 100 | > 100 | > 100 | – | > 100 | > 100 | > 100 | – | > 100
